From patent US11224565B2, “N-acyldipeptide derivatives and their uses” (NeoStrata Company, Inc., priority 2011, dated 2022) come the findings set out here.

Type in all cases: in vivo, human
Conditions in all cases: efficacy grade

One assay has as its system Disturbed keratinization. In words: Summary of test results in volunteer subjects: disturbed keratinization. From the text: (§1) In one embodiment, a composition for topical application to test its therapeutic effect was formulated by dissolving a bioactive dipeptide derivative of the present invention in a solution prepared from 40 parts water, 40 parts ethanol and 20 parts propylene glycol by volume (WEP442). In another embodiment, a composition was formulated by dissolving a bioactive dipeptide derivative of the present invention in a non-aqueous solution prepared from 80 parts ethanol and 20 parts propylene glycol by volume (EP82). In yet another embodiment, a composition was formulated first by dissolving a bioactive dipeptide derivative of the present invention in a solution prepared from 80 parts water and 20 parts propylene glycol by volume (WP82), and the solution thus prepared was mixed with an oil-in-water emulsion or cream. In another embodiment, the volunteer subject topically applied the test compositions containing N-acyldipeptide derivatives of the present invention on involved skin or lesions once or twice daily for several weeks or until the involved lesions completely cleared and clinically changed to normal skin. As a control study, the subject also topically applied a vehicle control composition on the involved skin or lesions twice daily for the same period. In yet another embodiment, the volunteer subject topically applied once or twice daily the test compositions containing N-acyldipeptide derivatives of the present invention on the skin site above arthritic joints or painful muscles to provide therapeutic effects for the systemic disorders via topical administration. Some test results are summarized as follows. DK: Disturbed keratinization

Assay [1] deals with Aging related changes of skin, nail and hair. In words: Summary of test results in volunteer subjects: aging related changes.
Excerpt: as §1, with “AG: Aging related changes of skin, nail and hair” for “DK: Disturbed keratinization”

The test system of assay [2] is Deranged immune disorders and inflammation. Kind of assay: Summary of test results in volunteer subjects: deranged immune disorders and inflammation.
Excerpt: as §1, with “DI: Deranged immune disorders and inflammation” for “DK: Disturbed keratinization”

The subject of another assay is Nerve disorders. Kind of assay: Summary of test results in volunteer subjects: nerve disorders.
Excerpt: as §1, with “ND: Nerve disorders” for “DK: Disturbed keratinization”

Molecules are shown by their SMILES. Peptide text beside a SMILES is read from it.

`CC(=O)Nc1ccccc1C(=O)NCC(N)=O` [N-Ac-Abz-Gly-NH2]: the DK in the assay with Disturbed keratinization is given as 2+ (2+: 50% Efficacy). Moreover, the AG in assay [1] is reported as 2+ (2+: 50% Efficacy). For the same compound, in assay [2], the DI is given as 3+ (3+: 75% Efficacy). Besides, the ND in the assay on Nerve disorders is recorded as 3+ (3+: 75% Efficacy).

As for `CC(=O)NCCCC(=O)NCC(N)=O` [N-Ac-Gaba-Gly-NH2], in the assay on Disturbed keratinization, the DK is listed as 2+ (2+: 50% Efficacy). The AG in assay [1] is on record as 2+ (2+: 50% Efficacy). Moreover, the DI in assay [2] is listed as 2+ (2+: 50% Efficacy). In addition, the ND in the assay with Nerve disorders is recorded as 2+ (2+: 50% Efficacy).

For `CC(=O)NCC(=O)NCC(N)=O` [N-Ac-Gly-Gly-NH2], in the assay on Disturbed keratinization, the DK is reported as 2+ (2+: 50% Efficacy). Further, in assay [1], the AG was 2+ (2+: 50% Efficacy). Further, in assay [2], the DI is recorded as 2+ (2+: 50% Efficacy). Besides, the ND with Nerve disorders is on record as 2+ (2+: 50% Efficacy).

Regarding `CC(=O)NCC(=O)N1CCC[C@H]1C(N)=O` [N-Ac-Gly-L-Pro-NH2] (Ac-Gly-Pro-NH2), the DK with Disturbed keratinization was 2+ (2+: 50% Efficacy). Further, the AG in assay [1] is on record as 2+ (2+: 50% Efficacy). For the same compound, the DI in assay [2] is reported as 2+ (2+: 50% Efficacy). In addition, the ND in the assay on Nerve disorders is listed as 2+ (2+: 50% Efficacy).

As for `CC[C@H](C)[C@H](NC(=O)[C@H](C)NC(C)=O)C(N)=O` [N-Ac-L-Ala-L-Ile-NH2] (Ac-Ala-Ile-NH2), the DK with Disturbed keratinization is 2+ (2+: 50% Efficacy). Moreover, the AG in assay [1] is listed as 2+ (2+: 50% Efficacy). Besides, the DI in assay [2] is given as 3+ (3+: 75% Efficacy). For the same compound, the ND in the assay on Nerve disorders is on record as 3+ (3+: 75% Efficacy).

Take `CC(=O)N[C@@H](CC(N)=O)C(=O)NCC(N)=O` [N-Ac-L-Asn-Gly-NH2] (Ac-Asn-Gly-NH2): in the assay with Disturbed keratinization, the DK is 2+ (2+: 50% Efficacy). In addition, the AG in assay [1] is 2+ (2+: 50% Efficacy). For the same compound, the DI in assay [2] is 2+ (2+: 50% Efficacy). Also, the ND in the assay on Nerve disorders is 2+ (2+: 50% Efficacy).

As to `CC(=O)N[C@@H](CS)C(=O)NCC(N)=O` [N-Ac-L-Cys-Gly-NH2], the DK in the assay on Disturbed keratinization is 2+ (2+: 50% Efficacy). The AG in assay [1] is given as 2+ (2+: 50% Efficacy). For the same compound, the DI in assay [2] is given as 2+ (2+: 50% Efficacy). Also, in the assay with Nerve disorders, the ND is reported as 2+ (2+: 50% Efficacy).

`CC(=O)N[C@@H](CS)C(=O)N[C@@H](CS)C(=O)O` [N-Ac-L-Cys-L-Cys-OH] (Ac-Cys-Cys-OH): in the assay on Disturbed keratinization, the DK is recorded as 2+ (2+: 50% Efficacy). The AG in assay [1] is given as 3+ (3+: 75% Efficacy). Besides, in assay [2], the DI is on record as 2+ (2+: 50% Efficacy). Moreover, the ND in the assay with Nerve disorders is on record as 2+ (2+: 50% Efficacy).

On to `CC(=O)N[C@@H](CCC(N)=O)C(=O)NCC(N)=O` [N-Ac-L-Gln-Gly-NH2] (Ac-Gln-Gly-NH2), for which the DK in the assay with Disturbed keratinization is reported as 2+ (2+: 50% Efficacy). Also, the AG in assay [1] is recorded as 2+ (2+: 50% Efficacy). In addition, the DI in assay [2] is recorded as 2+ (2+: 50% Efficacy). In the assay on Nerve disorders, the ND is reported as 2+ (2+: 50% Efficacy).

Regarding `CC(=O)N[C@@H](Cc1c[nH]cn1)C(=O)NCC(N)=O` [N-Ac-L-His-Gly-NH2] (Ac-His-Gly-NH2), the DK with Disturbed keratinization was 2+ (2+: 50% Efficacy). Besides, in assay [1], the AG is 2+ (2+: 50% Efficacy). In addition, the DI in assay [2] is 2+ (2+: 50% Efficacy). Further, the ND in the assay on Nerve disorders was 2+ (2+: 50% Efficacy).

With `CC[C@H](C)[C@H](NC(C)=O)C(=O)NCC(N)=O` [N-Ac-L-Ile-Gly-NH2] (Ac-Ile-Gly-NH2), the DK in the assay on Disturbed keratinization is recorded as 3+ (3+: 75% Efficacy). Besides, the AG in assay [1] is recorded as 3+ (3+: 75% Efficacy). Moreover, the DI in assay [2] was 4+ (4+: 95-100% Efficacy). Moreover, the ND in the assay with Nerve disorders is 4+ (4+: 95-100% Efficacy).

In the case of `CC[C@H](C)[C@H](NC(C)=O)C(=O)NCC(=O)O` [N-Ac-L-Ile-Gly-OH] (Ac-Ile-Gly-OH), the DK with Disturbed keratinization is 2+ (2+: 50% Efficacy). Further, in assay [1], the AG is on record as 2+ (2+: 50% Efficacy). In assay [2], the DI is 3+ (3+: 75% Efficacy). Further, in the assay on Nerve disorders, the ND was 4+ (4+: 95-100% Efficacy).
